Measurements: PubChem BioAssay (NCI)
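A five-concentration, 48-hour dose response in 96-well plates underlies each endpoint, interpolated linearly between surrounding concentrations. Definition used: TGI = concentration required for complete inhibition of growth.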

Experiments:
Assay in all cases: inhibition of tumour cell growth, NCI panel, 48 h
OVCAR-3 ovarian = test system: OVCAR-3 ovarian
K-562 leukemia = test system: K-562 leukemia
OVCAR-4 ovarian = test system: OVCAR-4 ovarian
HCT-15 colon = test system: HCT-15 colon
NCI-H522 lung = test system: NCI-H522 lung
SK-OV-3 ovarian = test system: SK-OV-3 ovarian
LOX IMVI melanoma = test system: LOX IMVI melanoma
A549 NSCLC = test system: A549 NSCLC
MOLT-4 leukemia = test system: MOLT-4 leukemia
HT29 colon = test system: HT29 colon
COLO 205 colon = test system: COLO 205 colon
SNB-19 CNS = test system: SNB-19 CNS
NCI-H226 lung = test system: NCI-H226 lung
U251 CNS = test system: U251 CNS
SNB-75 CNS = test system: SNB-75 CNS
M14 melanoma = test system: M14 melanoma
OVCAR-8 ovarian = test system: OVCAR-8 ovarian
HCT-116 colon = test system: HCT-116 colon
DLD-1 colon = test system: DLD-1 colon
NCI-H460 lung = test system: NCI-H460 lung
M19-MEL melanoma = test system: M19-MEL melanoma
A498 renal = test system: A498 renal
DMS 114 small cell lung = test system: DMS 114 small cell lung
MALME-3M melanoma = test system: MALME-3M melanoma
UO-31 renal = test system: UO-31 renal
HL-60(TB) leukemia = test system: HL-60(TB) leukemia
RPMI-8226 leukemia = test system: RPMI-8226 leukemia
OVCAR-5 ovarian = test system: OVCAR-5 ovarian
UACC-257 melanoma = test system: UACC-257 melanoma
TK-10 renal = test system: TK-10 renal
SW-620 colon = test system: SW-620 colon
NCI-H23 lung = test system: NCI-H23 lung
SNB-78 CNS = test system: SNB-78 CNS
SF-539 CNS = test system: SF-539 CNS
SK-MEL-28 melanoma = test system: SK-MEL-28 melanoma
HOP-92 NSCLC = test system: HOP-92 NSCLC
CAKI-1 renal = test system: CAKI-1 renal
CCRF-CEM leukemia = test system: CCRF-CEM leukemia
HOP-62 NSCLC = test system: HOP-62 NSCLC
SN12C renal = test system: SN12C renal
LXFL 529 NSCLC = test system: LXFL 529 NSCLC
SF-295 CNS = test system: SF-295 CNS
ACHN renal = test system: ACHN renal
SF-268 CNS = test system: SF-268 CNS
KM12 colon = test system: KM12 colon
KM20L2 colon = test system: KM20L2 colon
IGROV1 ovarian = test system: IGROV1 ovarian
786-0 renal = test system: 786-0 renal
HOP-18 NSCLC = test system: HOP-18 NSCLC
SK-MEL-2 melanoma = test system: SK-MEL-2 melanoma
UACC-62 melanoma = test system: UACC-62 melanoma
SK-MEL-5 melanoma = test system: SK-MEL-5 melanoma
MDA-N = test system: MDA-N
BT-549 breast = test system: BT-549 breast
DU-145 prostate = test system: DU-145 prostate
RXF 393 renal = test system: RXF 393 renal
NCI/ADR-RES ovarian = test system: NCI/ADR-RES ovarian
MDA-MB-435 = test system: MDA-MB-435
MCF7 breast = test system: MCF7 breast
HS 578T breast = test system: HS 578T breast
MDA-MB-231 breast = test system: MDA-MB-231 breast
EKVX NSCLC = test system: EKVX NSCLC
HCC-2998 colon = test system: HCC-2998 colon
SR leukemia = test system: SR leukemia
T-47D breast = test system: T-47D breast
PC-3 prostate = test system: PC-3 prostate

Cn1c(O)c(C(=O)Nc2cccs2)c(=O)[nH]c1=S
TGI (OVCAR-3 ovarian): 49.8 µM | TGI (K-562 leukemia): > 100 µM | TGI (OVCAR-4 ovarian): 66.1 µM | TGI (HCT-15 colon): 43 µM | TGI (NCI-H522 lung): 27.6 µM | TGI (SK-OV-3 ovarian): 72.5 µM | TGI (LOX IMVI melanoma): 31 µM | TGI (A549 NSCLC): 45 µM | TGI (MOLT-4 leukemia): 61.7 µM | TGI (HT29 colon): 34 µM | TGI (COLO 205 colon): 30.2 µM | TGI (SNB-19 CNS): 79.6 µM | TGI (NCI-H226 lung): 42.6 µM | TGI (U251 CNS): 48.3 µM | TGI (SNB-75 CNS): 31.3 µM | TGI (M14 melanoma): 64.3 µM | TGI (OVCAR-8 ovarian): 66.2 µM | TGI (HCT-116 colon): 26.5 µM | TGI (DLD-1 colon): 73.9 µM | TGI (NCI-H460 lung): 43.7 µM | TGI (M19-MEL melanoma): 44.3 µM | TGI (A498 renal): 35.8 µM | TGI (DMS 114 small cell lung): 35.9 µM | TGI (MALME-3M melanoma): 29.5 µM | TGI (UO-31 renal): 34.1 µM | TGI (HL-60(TB) leukemia): > 100 µM | TGI (RPMI-8226 leukemia): 49.1 µM | TGI (OVCAR-5 ovarian): 69.5 µM | TGI (UACC-257 melanoma): 32.6 µM | TGI (TK-10 renal): 61.6 µM | TGI (SW-620 colon): 87.6 µM | TGI (NCI-H23 lung): 28 µM | TGI (SNB-78 CNS): 47.7 µM | TGI (SF-539 CNS): 30.3 µM | TGI (SK-MEL-28 melanoma): 29 µM | TGI (HOP-92 NSCLC): 33.4 µM | TGI (CAKI-1 renal): 47.8 µM | TGI (CCRF-CEM leukemia): > 100 µM | TGI (HOP-62 NSCLC): 40.6 µM | TGI (SN12C renal): 74.6 µM | TGI (LXFL 529 NSCLC): 40.8 µM | TGI (SF-295 CNS): 38.1 µM | TGI (ACHN renal): 43.7 µM | TGI (SF-268 CNS): 41.9 µM | TGI (KM12 colon): 33.4 µM | TGI (KM20L2 colon): 34.1 µM | TGI (IGROV1 ovarian): 52 µM | TGI (786-0 renal): 41.8 µM | TGI (HOP-18 NSCLC): 8.34 µM | TGI (SK-MEL-2 melanoma): 30.4 µM | TGI (UACC-62 melanoma): 27.2 µM | TGI (SK-MEL-5 melanoma): 26.9 µM

Nc1ncnc2c1ccn2C1OC2COP(=O)(O)OC2C1O (centres undefined)
TGI (OVCAR-3 ovarian): > 96.3 µM | TGI (K-562 leukemia): 19 µM | TGI (OVCAR-4 ovarian): 9.6 µM | TGI (MDA-N): 11.1 µM | TGI (HCT-15 colon): 3.11 µM | TGI (NCI-H522 lung): 1.07 µM | TGI (SK-OV-3 ovarian): 24.5 µM | TGI (LOX IMVI melanoma): 1.34 µM | TGI (A549 NSCLC): 12.8 µM | TGI (MOLT-4 leukemia): 10.9 µM | TGI (HT29 colon): 11.7 µM | TGI (COLO 205 colon): 3.99 µM | TGI (BT-549 breast): 24 µM | TGI (SNB-19 CNS): > 75.9 µM | TGI (DU-145 prostate): > 100 µM | TGI (NCI-H226 lung): 28.5 µM | TGI (U251 CNS): > 100 µM | TGI (M14 melanoma): 1.54 µM | TGI (OVCAR-8 ovarian): 7.94 µM | TGI (HCT-116 colon): 10.4 µM | TGI (NCI-H460 lung): 12.9 µM | TGI (A498 renal): 28.2 µM | TGI (MALME-3M melanoma): 1.41 µM | TGI (UO-31 renal): > 100 µM | TGI (RXF 393 renal): 5.02 µM | TGI (HL-60(TB) leukemia): > 23.2 µM | TGI (RPMI-8226 leukemia): > 100 µM | TGI (NCI/ADR-RES ovarian): > 31.8 µM | TGI (MDA-MB-435): 2.31 µM | TGI (MCF7 breast): > 100 µM | TGI (OVCAR-5 ovarian): 46.9 µM | TGI (UACC-257 melanoma): 9.11 µM | TGI (TK-10 renal): 4.8 µM | TGI (SW-620 colon): > 44.5 µM | TGI (NCI-H23 lung): 9.37 µM | TGI (HS 578T breast): > 31 µM | TGI (MDA-MB-231 breast): 12.2 µM | TGI (SF-539 CNS): 20.2 µM | TGI (EKVX NSCLC): 57.7 µM | TGI (SK-MEL-28 melanoma): 14.2 µM | TGI (HOP-92 NSCLC): 7.41 µM | TGI (CCRF-CEM leukemia): 20.2 µM | TGI (HOP-62 NSCLC): 11.2 µM | TGI (SN12C renal): 12.7 µM | TGI (SF-295 CNS): 29.5 µM | TGI (HCC-2998 colon): 9.45 µM | TGI (ACHN renal): 14.2 µM | TGI (SF-268 CNS): 8.06 µM | TGI (KM12 colon): 16.5 µM | TGI (SR leukemia): 25.6 µM | TGI (IGROV1 ovarian): > 31 µM | TGI (786-0 renal): > 20.9 µM | TGI (SK-MEL-2 melanoma): 5.52 µM | TGI (UACC-62 melanoma): 1.45 µM | TGI (SK-MEL-5 melanoma): 1.59 µM | TGI (T-47D breast): 55.3 µM | TGI (PC-3 prostate): 3.07 µM
